Results taken from ChEMBL document CHEMBL1201862, “PubChem BioAssay data set” (2004).
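Briefly, cells in 96-well plates were exposed to five compound concentrations for 48 h, and endpoints were estimated by linear interpolation. The concentration for 50% growth inhibition is given as GI50.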 Calls of active or inactive are those of the source. Rule as the data show it: active = GI50 up to about 1.1 µM and inactive = higher.

Experiments:
Assay in all cases: DTP human tumour cell line panel, 48 h
SK-OV-3 = test system: SK-OV-3
U-251 = test system: U-251
KM12 = test system: KM12
XF498 = test system: XF498
ACHN = test system: ACHN
HL-60 = test system: HL-60
SF-295 = test system: SF-295
OVCAR-4 = test system: OVCAR-4
HCT-15 = test system: HCT-15
HT-29 = test system: HT-29
RXF 393 = test system: RXF 393
SN12C = test system: SN12C
SNB-19 = test system: SNB-19
OVCAR-5 = test system: OVCAR-5
IGROV-1 = test system: IGROV-1
HOP-18 = test system: HOP-18
SR = test system: SR
HCC 2998 = test system: HCC 2998
SNB-75 = test system: SNB-75
SNB-78 = test system: SNB-78
SK-MEL-2 = test system: SK-MEL-2
COLO 205 = test system: COLO 205
LOX IMVI = test system: LOX IMVI
EKVX = test system: EKVX
MOLT-4 = test system: MOLT-4
CCRF-CEM = test system: CCRF-CEM
SW-620 = test system: SW-620
NCI-H23 = test system: NCI-H23
KM-20L2 = test system: KM-20L2
Malme-3M = test system: Malme-3M
DLD-1 = test system: DLD-1
DMS-273 = test system: DMS-273
TK-10 = test system: TK-10
CAKI-1 = test system: CAKI-1
OVCAR-3 = test system: OVCAR-3
M19-MEL = test system: M19-MEL
NCI-H226 = test system: NCI-H226
UACC-257 = test system: UACC-257
M14 = test system: M14
HCT-116 = test system: HCT-116
K562 = test system: K562
SK-MEL-28 = test system: SK-MEL-28
OVCAR-8 = test system: OVCAR-8
HOP-62 = test system: HOP-62
NCI-H522 = test system: NCI-H522
SF-268 = test system: SF-268
NCI-H460 = test system: NCI-H460
RPMI-8226 = test system: RPMI-8226
UACC-62 = test system: UACC-62
DMS-114 = test system: DMS-114
A549 = test system: A549
UO-31 = test system: UO-31
LXFL 529 = test system: LXFL 529
786-0 = test system: 786-0
A498 = test system: A498
SF-539 = test system: SF-539
SK-MEL-5 = test system: SK-MEL-5
HOP-92 = test system: HOP-92

Measured: GI50

CCOC(=O)C1(C#N)C(c2ccccc2)CC(O)(c2ccc([N+](=O)[O-])cc2)C(C(=O)c2ccc([N+](=O)[O-])cc2)C1c1ccccc1 (stereo unspecified)
inactive: SK-OV-3 > 100 µM | U-251 > 100 µM | KM12 > 100 µM | XF498 > 100 µM | ACHN > 100 µM | HL-60 > 100 µM | SF-295 > 100 µM | OVCAR-4 > 100 µM | HT-29 > 100 µM | RXF 393 15.5 µM | SN12C > 100 µM | SNB-19 32.2 µM | OVCAR-5 > 100 µM | IGROV-1 > 100 µM | HOP-18 29.9 µM | SR > 100 µM | HCC 2998 > 100 µM | SNB-75 21 µM | SNB-78 > 100 µM | SK-MEL-2 > 100 µM | COLO 205 > 100 µM | LOX IMVI > 100 µM | EKVX > 100 µM | MOLT-4 > 100 µM | CCRF-CEM > 100 µM | SW-620 > 100 µM | NCI-H23 42.2 µM | KM-20L2 > 100 µM | Malme-3M > 100 µM | DLD-1 > 100 µM | DMS-273 > 100 µM | TK-10 > 100 µM | CAKI-1 > 100 µM | OVCAR-3 > 100 µM | M19-MEL > 100 µM | NCI-H226 > 100 µM | UACC-257 > 100 µM | M14 > 100 µM | HCT-116 > 100 µM | K562 > 100 µM | SK-MEL-28 > 100 µM | OVCAR-8 > 100 µM | HOP-62 > 100 µM | NCI-H522 34 µM | SF-268 > 100 µM | NCI-H460 > 100 µM | RPMI-8226 > 100 µM | UACC-62 > 100 µM | DMS-114 > 100 µM | A549 > 100 µM | UO-31 > 100 µM | LXFL 529 > 100 µM | 786-0 > 100 µM
> 100 µM: HCT-15

Cc1cccc(C)c1NC(=O)CCC(=O)CC(=O)C(C)C
inactive: SK-OV-3 > 100 µM | A498 > 100 µM | U-251 > 100 µM | KM12 > 100 µM | XF498 > 100 µM | ACHN > 100 µM | HL-60 > 100 µM | SF-295 > 100 µM | OVCAR-4 > 100 µM | HT-29 > 100 µM | RXF 393 > 100 µM | SN12C > 100 µM | SF-539 > 100 µM | SNB-19 > 100 µM | OVCAR-5 > 100 µM | IGROV-1 > 100 µM | HOP-18 > 100 µM | SR > 100 µM | HCC 2998 > 100 µM | SNB-75 > 100 µM | SNB-78 > 100 µM | SK-MEL-2 > 100 µM | SK-MEL-5 > 100 µM | COLO 205 > 100 µM | EKVX > 100 µM | MOLT-4 > 100 µM | CCRF-CEM > 100 µM | SW-620 > 100 µM | NCI-H23 > 100 µM | KM-20L2 > 100 µM | Malme-3M > 100 µM | DLD-1 > 100 µM | DMS-273 > 100 µM | TK-10 > 100 µM | CAKI-1 > 100 µM | OVCAR-3 > 100 µM | M19-MEL > 100 µM | NCI-H226 > 100 µM | UACC-257 > 100 µM | M14 > 100 µM | HOP-92 > 100 µM | HCT-116 > 100 µM | K562 > 100 µM | SK-MEL-28 > 100 µM | OVCAR-8 > 100 µM | HOP-62 > 100 µM | NCI-H522 > 100 µM | SF-268 > 100 µM | NCI-H460 > 100 µM | RPMI-8226 > 100 µM | UACC-62 > 100 µM | DMS-114 > 100 µM | A549 > 100 µM | UO-31 > 100 µM | LXFL 529 > 100 µM | 786-0 > 100 µM
> 100 µM: HCT-15
